From article PMC11084299 (International Journal of Molecular Sciences, 2024) come the findings set out here.

The target of data set [1] is T1, Homo sapiens tyrosyl-tRNA synthetase (HsTyrRS) (Homo sapiens, UniProt P54577).
T1 construct: gene YARS1; recombinant HsTyrRS, C-terminal 10 × His tag, ~64 kDa, homodimer
T1 sequence (P54577 1-528): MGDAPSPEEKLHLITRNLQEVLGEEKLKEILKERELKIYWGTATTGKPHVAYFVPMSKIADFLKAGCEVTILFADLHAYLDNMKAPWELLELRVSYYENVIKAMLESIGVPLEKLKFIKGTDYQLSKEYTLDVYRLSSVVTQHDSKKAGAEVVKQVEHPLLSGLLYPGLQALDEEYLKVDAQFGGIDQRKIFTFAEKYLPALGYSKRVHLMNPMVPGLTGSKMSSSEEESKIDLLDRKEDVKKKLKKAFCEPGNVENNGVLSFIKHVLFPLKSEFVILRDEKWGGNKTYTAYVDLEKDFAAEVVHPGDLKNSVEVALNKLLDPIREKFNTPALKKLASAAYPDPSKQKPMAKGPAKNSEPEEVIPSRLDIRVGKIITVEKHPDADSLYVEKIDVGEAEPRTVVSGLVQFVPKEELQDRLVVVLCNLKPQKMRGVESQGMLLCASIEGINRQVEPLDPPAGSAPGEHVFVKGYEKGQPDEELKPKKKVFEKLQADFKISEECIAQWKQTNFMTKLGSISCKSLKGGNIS
Briefly: ATP hydrolysis (consumption) assay, luciferin/luciferase luminescence, purified enzyme. Type of data set: biochemical.

In data set [2] the target is T2, Plasmodium falciparum tyrosyl-tRNA synthetase (PfTyrRS) (Plasmodium falciparum, UniProt Q8IAR7).
T2 construct: gene PF3D7_0807900; recombinant PfTyrRS (PF3D7-0807900), C-terminal 10 × His tag, ~47 kDa, homodimer
Briefly: bio-layer interferometry (Ni-NTA biosensors, immobilized PfTyrRS); supported by ATP hydrolysis inhibition (IC50 […]), TSA and limited proteolysis. Type of data set: binding. For orientation: In BLI a coated tip is dipped into the sample, and binding shifts an interference pattern.

Data set [3] deals with the molecule itself. In words: SEC; Superdex 200 Increase 10/300 GL, final purification step; oligomeric state from the apparent molecular weight at the elution volume. A general note: Size exclusion chromatography separates by hydrodynamic size, large species first.

The IC50 is the concentration that inhibits the measured activity by half. High values mean weaker potency in that assay, low ones greater potency in that assay. The Kd is the equilibrium constant for the complex coming apart. High values mean weaker binding, low ones tighter binding. As usually defined, the stoichiometry N is the number of molecules, sites or subunits per partner or assembly.

Molecule `O=C(/C=C/c1ccc(O)c(O)c1)c1ccc(O)c(O)c1O` [okanin] yielded an IC50 in data set [1] of 38.2 ± 2.71 µM. In addition, in data set [2], the affinity, expressed as Kd, was 0.29 µM.

B1: Plasmodium falciparum tyrosyl-tRNA synthetase (enzyme, UniProt Q8IAR7 1-373, looked up)
chain: METTDTKREEQEIEEKKAQEESKIEDVDKILNDILSISSECIQPDELRVKLLLKRKLICYDGFEPSGRMHIAQGLLKSIIVNKLTSNGCTFIFWIADWFAHLNNKMSGDLKKIKKVGSYFIEVWKSCGMNMENVQFLWASEEINKKPNEYWSLVLDISRSFNINRMKRCLKIMGRSEGEENYCSQILYPCMQCADIFFLNVDICQLGIDQRKVNMLAREYCDIKKIKKKPVILSHGMLPGLLEGQEKMSKSDENSAIFMDDSESDVNRKIKKAYCPPNVIENNPIYAYAKSIIFPSYNEFNLVRKEKNGGDKTYYTLQELEHDYVNGFIHPLDLKDNVAMYINKLLQPVRDHFQNNIEAKNLLNEIKKYKVTK
notes: Tyrosyl-tRNA synthetase of Plasmodium falciparum, gene ID PF3D7-0807900, synthesized gene in pET28a; about 47 kDa on SDS-PAGE; No tag cleavage is described; The same protein was later captured on Ni-NTA biosensors for BLI with okanin, so the His tag was probably still present in the gel filtration; also called PfTyrRS; PfTysRS; source: E. coli BL21, purified (Ni-NTA, HiTrap Q HP, Superdex 200 …)
For B1, the “stoichiometry N” value in data set [3] stood at 2.

B2: Homo sapiens tyrosyl-tRNA synthetase (enzyme, UniProt P54577 1-528, looked up)
chain: T1 sequence (P54577 1-528)
notes: Tyrosyl-tRNA synthetase, human, in pET28a; about 64 kDa on SDS-PAGE; No tag cleavage is described; also called HsTyrRS; HsTysRS; source: E. coli, purified (Ni column, ion exchange Q HP, size exclusion chromatography)
Turning to B2, the “stoichiometry N” value in data set [3] is 2.
